Assay results: patent US9084798B2, “Use of lanostane and Poria extract in treating diabetes” (Sinphar Tian-Li Pharmaceutical Co., Ltd (Hangzhou), priority 2009, dated 2015)

Key:
3T3-L1 adipocytes [1] = assay: 2-deoxy-glucose uptake in differentiated mature 3T3-L1 adipocytes; type: cell-based, rodent
Description: (§1) 3T3-L1 preadipocytes were cultured in Dulbecco's minimal essential medium (DMEM) supplemented with 100 IU/mL penicillin, 100 µg/mL streptomycin, 1% nonessential amino acid and 10% calf serum in 5% CO2 and 95% Air at 37° C. Once the cells have become fully grown, differentiation was induced by treating the cells with differentiation inducers (DMEM containing 0.5 mM 3-isobutyl-1-methylxanthane (IBMX), 1 µM dexamethasone, […], and 10% fetal bovine serum) for two days. The cells were re-fed with DMEM supplemented with 10 µg/mL insulin and 10% FBS for another two days, and then changed to 10% FBS/DMEM without insulin every 2 days for 4-6 days. At this stage, near 90% of the cells expressed the adipocyte phenotype and were ready for the experiments. Before commencing the experiments, the 3T3-L1 cells were rinsed with PBS solution first, and then cultured overnight in the serum-free and insulin-free 0.2% BSA/DMEM culture medium, so as to remove interferences from both serum and insulin.
For the experiment of testing the effects of triterpene compounds on enhancing glucose uptake by 3T3-L1 adipocytes, 3T3-L1 preadipocytes were cultured on 6-well culture dishes, and allowed to grow fully therein before being subjected to differentiation by a differentiation-inducing agent. Once the 3T3-L1 cells became matured and differentiated into adipocytes after 7-12 days, the cells were used for testing glucose uptake. Said adipocytes were firstly placed in a serum-free culture medium (0.2% BSA/DMEM) overnight, followed by cultivation for 2-6 hours in serum-free cell culture media containing different concentrations of triterpene compounds, and then rinsed once with PBS solution before undergoing cultivation in KRP buffer (20 mM HEPES, 137 mM NaCl, 4.7 mM KCl, 1.2 mM MgSO4, 1.2 mM KH2PO4, 2.5 mM CaCl2, and 2 mM pyruvate, pH 7.4 and 0.2% BSA) at 37° C. for 3 hours. Finally, 0.2 μCi/mL of 2-deoxy-D-[^14C]-glucose (2-DG, Amersham Biosciences, Little Chalfont, Bucks, U.K) and 0.2 ml of non-radioactive glucose buffer derived from 0.1 mM 2-DG were used as a substitute for KRP buffer in order to begin the experiment on glucose uptake. After allowing the experiment to run for […], the cells were removed and rinsed with PBS solution to terminate the intake of glucose. Subsequently, the cells were dissolved in 0.2 ml of 0.2% SDS, and 10 μL, of the solution with dissolved cells was transferred into UniFilter plates (Perkim-Elmer, Wellesley, Mass., USA) with filtering bases and dried in a vacuum oven at 37° C., in which each well was added with 30 μL of counting solution, and then analyzed by using a micro-disk liquid scintillation analyzer (TopCount, Packard NXT, Packard BioScience Company, Meriden, Conn., USA). The glucose concentration accumulated in the cells was calculated, and divided by the protein concentration, so as to obtain a glucose uptake rate indicated as nanomoles of glucose uptake in every microgram of cell proteins at every minute (nmol/min/mg). The protein concentration was determined by using the standard Bicinchoninic acid (BCA) protein assay kit (Pierce, Rockford, Ill., USA). The uptake of non-specific glucose was determined by adding 0.2 μCi of L-[14C]-glucose, and then used to substract from the value obtained by the analyzer so as to get a value for the uptake of specific glucose. Therefore, the effects of different concentrations of triterpene compounds on the glucose uptake by 3T3-L1 adipocytes could be determined.

3T3-L1 adipocytes [2] = assay: release of glycerol from 3T3-L1 adipocytes (glycerol assay kit); type: cell-based, rodent; conditions: 24 hours after administering different doses of PA
Description: (§2) For the experiment of testing the effects of triterpene compounds on the accumulation of triglycerides and the release of glycerol in 3T3-L1 adipocytes, the differentiated and mature 3T3-L1 adipocytes were cultivated overnight in a serum-free cell culture medium, and then further cultivated in serum-free cell culture media containing different concentrations of triterpene compounds for 24 hours. The culture media were collected and tested for the release of glycerol by using a glycerol assay kit (Randox Laboratories, Antrim, UK), to determine whether different concentrations of triterpene compounds had any effects on the release of glycerol from lipid breakdown in 3T3-L1 adipocytes. The level of triglycerides in the adipocytes were determined by Oil-Red O staining (Ramirez-Zacarias, J. L. et. al.; Histochemistry 97, (6), 493-497, 1992). The oil droplets formed by the accumulation of lipids in the cells were stained, rinsed twice with 60% isopropanol, and then extracted in 100% isopropanol before being quantified at the absorbance of 490 nm. The readings were compared with that from the adipocytes without being given triterpene compounds, in order to evaluate the effects of different concentrations of triterpene compounds on the accumulation of triglycerides in the adipocytes.

GLUT4 [3] = assay: GLUT4 protein expression by Western blot in 3T3-L1 adipocytes; type: cell-based, rodent; conditions: different doses of PA for 24 hours
Description: For the experiment of testing the effects of triterpene compounds on enhancing the GLUT protein expression in 3T3-L1 adipocytes, the aforesaid differentiated and mature 3T3-L1 adipocytes were cultured overnight in a serum-free cell culture medium, and then further cultured in serum-free cell culture media containing different concentrations of triterpene compounds for 24 hours. This was followed by rinsing the cells with PBS solution, and allowing the cells to lyse in 0.2 mL lysis buffer (1% NP-40, 150 mM NaCl, 0.1% SDS, 50 mM Tris-HCl pH 7.6, 10 mM EDTA, 0.5% deoxycholate, 1 mM PMSF, 1 mM Na3VO4, 10 mM NaF, 10 mM β-glycerophosphate, 10 g/mL protease inhibitor and phosphotase inhibitor cocktails) for 30 min at 4° C. An equal amount of protein from each sample was separated by sodium dodecyl sulfate (SDS)-10% polyacrylamide gel electrophoresis (PAGE) and transblotted onto polyvinylidene difluoride (PVDF) membranes (Millipore, Bedford, Mass., USA). […] Each sample of proteins was treated with a chemiluminescence kit (ECL, Amersham, U.K.) before being exposed and processed into X-ray film, and then quantitatively analyzed by using computer software.

3T3-L1 adipocytes [4] = assay: accumulation of triglycerides in 3T3-L1 adipocytes (Oil-Red O staining); type: cell-based, rodent; conditions: 24 hours after administering different doses of PA
Description: as §2

HA-GLUT4-GFP = assay: GLUT4 translocation to plasma membrane, HA-GLUT4-GFP fluorescence ratio; type: cell-based, rodent; conditions: 1.0 μM of PA, 2 hours; rhodamine/GFP fluorescence ratio
GLUT4 [5] = assay: GLUT4 mRNA expression by real-time Q-PCR in 3T3-L1 adipocytes; type: cell-based, rodent; conditions: 1 μM of PA, 24 hours
Description: Real-time Q-PCR was performed in order to evaluate mRNA expression of GLUT proteins in 3T3-L1 adipocytes under different concentrations of triterpene compounds. Firstly, the fully differentiated 3T3-L1 adipocytes were mixed with different concentrations of triterpene compounds and left for 24 hours, before removing the cell culture medium and using the Trizol buffer (Invitrogen, Irvine, Calif., USA) to obtain total RNA from the cells. Afterwards, 1 μg of RNA sample was taken therefrom, and a High-Capacity cDNA Reverse Transcription Kit (Applied Biosystems, Darmstadt, Germany) was used to reverse transcribe mRNA in the sample into cDNA. Primers were specifically designed for GLUT1, GLUT4, and β-actin, and the SYBR Green Q-PCR analyzer (Applied Biosystems, Foster City, Calif., USA) was used to expand the gene for detection (Glut1 & 4) and reference gene (β-actin), before relative gene expression values were calculated by the ΔΔCT method using the StepOne v2.0 software (Applied Biosystems).

3T3-L1 preadipocytes = assay: 2-deoxy-glucose uptake in 3T3-L1 preadipocytes; type: cell-based, rodent
Description: as §1, with “Before commencing the experiments, the 3T3-L1 cells were rinsed with PBS solution first, and then cultured overnight in the serum-free and insulin-free 0.2% BSA/DMEM culture medium, so as to remove interferences from both serum and insulin.” left out
For the experiment of testing the effects of triterpene compounds on enhancing glucose uptake by 3T3-L1 adipocytes, 3T3-L1 preadipocytes were cultured on 6-well culture dishes, and allowed to grow fully therein before being subjected to differentiation by a differentiation-inducing agent. […] The glucose concentration accumulated in the cells was calculated, and divided by the protein concentration, so as to obtain a glucose uptake rate indicated as nanomoles of glucose uptake in every microgram of cell proteins at every minute (nmol/min/mg). […]

GLUT4 [6] = assay: GLUT4 translocation to plasma membrane, centrifugation fractions and Western blot; type: cell-based, rodent; conditions: 2 hours
Description: In the mechanism of insulin enhancing glucose uptake by adipocytes or muscle cells, the translocation of GLUT4 from intracellular organelles to plasma membrane (PM) actually plays a vital rol therein, thus the effects of triterpene compounds on enhancing the translocation of GLUT4 to plasma membrane in 3T3-L1 adipocytes were tested here. The differentiated and mature 3T3-L1 adipocytes were cultured overnight in a serum-free cell culture medium, and then further cultured in serum-free cell culture media containing different concentrations of triterpene compounds for 2 hours. This was followed by high-speed centrifugation at different rotation speeds (16,000 g-200,000 g) in order to separate the cellular plasma membrane fraction from the low density microsome (LDM) [Liu, L. Z. et. al.; Mol. Biol. Cell 17, (5), 2322-2330, 2006]. Western blot analysis was performed by using a monoclonal antibody for GLUT4, so as to observe whether there are any effects from different concentrations of triterpene compounds on the translocation of GLUT4 from cellular LDM to PM in 3T3-L1 adipocytes.

[7] = tested on: 3T3-L1 adipocytes with suppressed GLUT4 expression (shG4-30); assay: glucose uptake in adipocytes with suppressed mRNA expression of GLUT4 (shG4-30); type: cell-based, rodent; conditions: different doses of PA
Description: A viral carrier (TRCN0000043630 shRNA, Genomics Research Center, Academia Sinica, R.O.C.) carrying GLUT4-inhibiting RNA was used to infect the 3T3-L1 preadipocytes (shG4-30), in order to create a gene expression having consistent inhibition of GLUT4 expression, and the cell strain was allowed to further differentiate, from which the differentiated adipocytes were used for the experiments.
For the experiment of testing the effects of triterpene compounds on enhancing glucose uptake by 3T3-L1 adipocytes, 3T3-L1 preadipocytes were cultured on 6-well culture dishes, and allowed to grow fully therein before being subjected to differentiation by a differentiation-inducing agent. […] Subsequently, the cells were dissolved in 0.2 ml of 0.2% SDS, and 10 μL, of the solution with dissolved cells was transferred into UniFilter plates (Perkim-Elmer, Wellesley, Mass., USA) with filtering bases and dried in a vacuum oven at 37° C., in which each well was added with 30 μL of counting solution, and then analyzed by using a micro-disk liquid scintillation analyzer (TopCount, Packard NXT, Packard BioScience Company, Meriden, Conn., USA). The glucose concentration accumulated in the cells was calculated, and divided by the protein concentration, so as to obtain a glucose uptake rate indicated as nanomoles of glucose uptake in every microgram of cell proteins at every minute (nmol/min/mg). […]

in vitro adipocytes = conditions: cited from earlier work
mice = conditions: cited from earlier work
[8] = 0.01 μM, two hours after giving the compound, versus untreated control

## C=C(CC[C@@H](C(=O)O)[C@H]1[C@H](O)C[C@@]2(C)C3=C(CC[C@]12C)[C@@]1(C)CC[C@H](O)C(C)(C)[C@@H]1CC3)C(C)C [TA, tumulosic acid]
3T3-L1 adipocytes [1]; [8]
  glucose uptake increased to: 142.5%

## C=C(CC[C@@H](C(=O)O)[C@H]1[C@H](O)C[C@@]2(C)C3=CC[C@H]4C(C)(C)C(=O)CC[C@]4(C)C3=CC[C@]12C)C(C)C [PPA, polyporenic acid C]
3T3-L1 adipocytes [1]; [8]
  glucose uptake increased to: 147.9%

## C=C(CC[C@@H](C(=O)O)[C@H]1[C@H](O)C[C@@]2(C)C3=C(CC[C@]12C)[C@@]1(C)CC[C@H](OC(C)=O)C(C)(C)[C@@H]1CC3)C(C)C [PA, pachymic acid]
3T3-L1 adipocytes [2]
  release of glycerol lowered to: approximately 70 % of the original level
GLUT4 [3]
  protein expression of GLUT4 (FIG. 5): effective for enhancing the protein expression of GLUT4
3T3-L1 adipocytes [4]
  accumulation of triglycerides (FIG. 9): exceeded 137%
3T3-L1 adipocytes [1]; [8]
  glucose uptake increased to: 165.89%
3T3-L1 adipocytes [1]; PA at 1 μM, acting two hours
  glucose uptake increased to: 209.84%
3T3-L1 adipocytes [1]; differentiated adipocytes
  enhancement of glucose uptake (FIG. 4): only effective for enhancing glucose uptake in differentiated adipocytes
HA-GLUT4-GFP
  translocation of GLUT4 to plasma membrane elevated (FIG. 8B): 2.71 fold
GLUT4 [5]
  gene expression of GLUT4 elevated to (FIG. 6): 228%
3T3-L1 preadipocytes
  enhancement of glucose uptake (FIG. 4): not for preadipocytes
GLUT4 [6]; 0.01 μM of PA
  amount of GLUT4 in the plasma membrane increased to (FIG. 8A): 141%
GLUT4 [6]; 1 μM of PA
  amount of GLUT4 in the plasma membrane increased to (FIG. 8A): 328%
[7]
  glucose uptake in adipocytes with low expression of GLUT4 (FIG. 7B): did not greatly enhance the glucose uptake

## O=C(CCc1ccc(O)cc1)c1c(O)cc(O)cc1O [phloretin (PT), phloretin, reference compound]
3T3-L1 adipocytes [1]; adipocytes
  glucose uptake after phloretin (FIG. 4): significantly inhibited
3T3-L1 preadipocytes
  glucose uptake after phloretin (FIG. 4): significantly inhibited

## CC(C)=CCC[C@@H](C(=O)O)[C@H]1CC[C@@]2(C)C3=CC[C@H]4C(C)(C)[C@@H](O)CC[C@]4(C)C3=CC[C@]12C [dehydrotrametenolic acid]
In vitro adipocytes
  effective concentration: 10^−5 M
mice; mice
  effective dose: 110 mg/kg
mice; researchers' conclusion from the mouse dose
  effective dose for use in the human body: more than 700 mg

## insulin [reference compound]
3T3-L1 adipocytes [1]; 100 nM insulin
  effect on glucose uptake: effective for increasing glucose uptake
